Results: PubChem BioAssay (NCI)
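Briefly, cells in 96-well plates were exposed to five compound concentrations for 48 h, and endpoints were estimated by linear interpolation. GI50 marks 50% less growth. The concentration for full growth arrest is given as TGI.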

Key:
Assay in all cases: NCI-60 cell line screen, 48 h
A498 renal = test system: A498 renal
CAKI-1 renal = test system: CAKI-1 renal
KM12 colon = test system: KM12 colon
M14 melanoma = test system: M14 melanoma
NCI-H460 lung = test system: NCI-H460 lung
OVCAR-3 ovarian = test system: OVCAR-3 ovarian
OVCAR-4 ovarian = test system: OVCAR-4 ovarian
SK-MEL-28 melanoma = test system: SK-MEL-28 melanoma
SK-OV-3 ovarian = test system: SK-OV-3 ovarian
UACC-257 melanoma = test system: UACC-257 melanoma

Row | Structure (SMILES) | TGI (A498 renal) | TGI (CAKI-1 renal) | TGI (KM12 colon) | TGI (M14 melanoma) | TGI (NCI-H460 lung) | TGI (OVCAR-3 ovarian) | TGI (OVCAR-4 ovarian) | TGI (SK-MEL-28 melanoma) | TGI (SK-OV-3 ovarian) | TGI (UACC-257 melanoma) | GI50 (A498 renal) | GI50 (CAKI-1 renal) | GI50 (KM12 colon) | GI50 (M14 melanoma) | GI50 (NCI-H460 lung) | GI50 (OVCAR-3 ovarian) | GI50 (OVCAR-4 ovarian) | GI50 (SK-MEL-28 melanoma) | GI50 (SK-OV-3 ovarian) | GI50 (UACC-257 melanoma)
1 | O=C(O)C1CCc2nnc(-c3ccccc3)n21 (stereo not given) | > 100 µM | > 100 µM | > 100 µM | > 100 µM | > 100 µM | > 100 µM | > 100 µM | > 100 µM | > 100 µM | > 100 µM |  |  |  |  |  |  |  |  |  | 
2 | Cc1c(C)c2c(c(C)c1NC(=O)/C=C\C(=O)O)CCC(C)(CCCC(C)CCCC(C)CCCC(C)C)O2 (stereo not given) | 2.7 µM | 3.12 µM | 3.17 µM | 2.75 µM | 2.96 µM | 2.97 µM | 5.16 µM | 3.28 µM | 3.25 µM | 3.83 µM | 1.38 µM | 1.49 µM | 1.67 µM | 1.37 µM | 1.45 µM | 1.61 µM | 2.52 µM | 1.79 µM | 1.73 µM | 1.72 µM
3 | COc1c(C2=NC(C(C)C)CO2)ccc2ccccc12 (stereo not given) | > 100 µM | > 100 µM | > 100 µM | > 100 µM | > 100 µM | > 100 µM | > 100 µM | > 100 µM | > 100 µM | > 100 µM |  |  |  |  |  |  |  |  |  | 
4 | Nc1ncnc2c1ncn2C1OC(CSC(F)(F)F)C(O)C1O (stereo not given) | > 100 µM | > 100 µM | > 100 µM | > 100 µM | > 100 µM | > 100 µM | > 100 µM | > 100 µM | > 100 µM | > 100 µM |  |  |  |  |  |  |  |  |  | 
5 | Cc1cc(=O)n(-c2ccccc2)c(=O)o1 | > 100 µM | > 100 µM | > 100 µM | > 100 µM | > 100 µM | > 100 µM | > 100 µM | > 100 µM | > 100 µM | > 100 µM |  |  |  |  |  |  |  |  |  | 
6 | C=CCn1c(=O)c2cnc(Nc3ccc(N4CCN(C)CC4)cc3)nc2n1-c1ccc2c(n1)[C@@](O)(CC)CC2 | 3.62 µM | 20.5 µM | 3.82 µM | 5.81 µM | 16.7 µM | 2.86 µM | > 39.9 µM | 21.6 µM | 4.48 µM | 18.1 µM | 0.161 µM | 0.113 µM | 0.391 µM | 0.225 µM | 1.94 µM | 0.333 µM | 1.89 µM | 3.68 µM | 0.284 µM | 1.75 µM
